Assay results taken from PMC11249646, “Small-Molecule Disruptors of the Interaction between Calcium- and Integrin-Binding Protein 1 and Integrin αIIbβ3 as Novel Antiplatelet Agents” (ACS Pharmacology & Translational Science, 2024).
Where two headings read alike, the source gives them in different places.

Key:
[1] = target: T1, GST-CIB1 : F-scrambled peptide (Homo sapiens, UniProt Q99828); assay: FP scrambled-peptide counter screen, 1536-well format; format: binding; details: for COUNTERSCREEN Curve Class / Curve Class (counterscreen): qHTS curve class
T1 construct: made in house; host or cells: BL-21 plus RIL cells (E. coli)
T1 sequence (Q99828 1-191): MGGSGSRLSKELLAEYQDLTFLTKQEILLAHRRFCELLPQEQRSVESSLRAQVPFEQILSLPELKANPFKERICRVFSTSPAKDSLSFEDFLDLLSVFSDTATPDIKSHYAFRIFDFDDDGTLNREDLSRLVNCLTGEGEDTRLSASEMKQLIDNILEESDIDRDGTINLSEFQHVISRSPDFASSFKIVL

[2] = target: T2, CIB1 and αIIb interaction (CIB1-GST : F-αIIb peptide) (Homo sapiens, UniProt Q99828); assay: FP assay, 1536-well qHTS format (primary and confirmatory screen); format: binding; details: for CONFIRMATORY SCREEN Curve Class / Curve Class (confirmatory screen): qHTS curve class
T2 construct: made in house; host or cells: BL-21 plus RIL cells (E. coli)
T2 sequence (Q99828 1-191): T1 sequence (Q99828 1-191)

[3] = scrambled-peptide counterscreen
[4] = scrambled-peptide counterscreen, YES/NO call
[5] = confirmatory screen, YES/NO call
[6] = confirmatory screen, negative sign = inhibitory curve
[7] = confirmatory screen, negative = inhibition
[8] = qHTS primary screen hits, Table S2, negative = inhibition
[9] = qHTS primary screen hits, Table S2, read-out: IC50
[10] = counterscreen, negative sign = inhibitory curve
[11] = counterscreen, read-out: IC50 [μM] (counterscreen)
[12] = qHTS primary screen hits, Table S2, negative sign = inhibitory curve, several classes where COUNT > 1
[13] = Table S3, counterscreen, negative = inhibition
[14] = Table S3, counterscreen, read-out: IC50 [μM] (counterscreen)
[15] = Table S3, confirmatory screen, a negative sign marks inhibitory curves
[16] = Table S3, confirmatory screen, negative = inhibition
[17] = confirmatory screen, read-out: IC50 [μM] (confirmatory screen)
[18] = qHTS FP screen hits, Table S2, negative = inhibition
[19] = qHTS FP screen hits, Table S2, one class per curve where COUNT > 1, negative sign = inhibitory curve
[20] = qHTS FP screen hits, Table S2, read-out: IC50
[21] = Table S3, counterscreen, a negative sign marks inhibitory curves
[22] = Table S3, confirmatory screen, YES/NO call
[23] = Table S3, confirmatory screen, read-out: IC50 [μM] (confirmatory screen)

Row | Structure (SMILES) | Efficacy (%) [2, 8] [%] | IC50 [2, 9] [µM] | Efficacy (%) (counterscreen) ([1]; counterscreen) | Curve Class (counterscreen) [1, 10] | Efficacy (%) (confirmatory screen) ([2]; confirmatory screen) | Confirm? (confirmatory screen) ([2]; confirmatory screen, YES/NO) | Curve Class (confirmatory screen) [2, 6] | Curve Class [2, 12] | Efficacy (%) (counterscreen) [1, 13] | IC50 [1, 14] [µM] | Curve Class (confirmatory screen) [2, 15] | Efficacy (%) (confirmatory screen) [2, 16] | Efficacy (%) [2, 18] [%] | Curve Class [2, 19] | IC50 [2, 20] [µM] | Curve Class (counterscreen) [1, 21] | also measured
1 | Cc1ccc(C(=O)Nc2ccc(S(=O)(=O)O)c3cc(S(=O)(=O)O)cc(S(=O)(=O)O)c23)cc1NC(=O)c1cccc(NC(=O)Nc2cccc(C(=O)Nc3cc(C(=O)Nc4ccc(S(=O)(=O)O)c5cc(S(=O)(=O)O)cc(S(=O)(=O)O)c45)ccc3C)c2)c1 [NCGC00163318-03] | -22 | 0.7 | – | – | – | – | – | – | – | – | – | – | – | – | – | – | COUNTERSCREEN Efficacy (%) [1, 3]: 16%; COUNTERSCREEN Confirm? [1, 4]: YES; COUNTERSCREEN Curve Class [1, 3]: 4; CONFIRMATORY SCREEN Confirm? [2, 5]: YES; CONFIRMATORY SCREEN Curve Class [2, 6]: -1.4; CONFIRMATORY SCREEN Efficacy (%) [2, 7]: -15%; IC50 ([2]; confirmatory screen, read-out: CONFIRMATORY SCREEN IC50): 7.9 µM; Curve Class ([2]; qHTS primary screen hits, Table S2, negative sign = inhibitory curve): -1.4
2 | CCOC(=O)c1ccc(O)c2ncc(N3CCC(C(=N)N)CC3)cc12.O=C(O)C(F)(F)F [NCGC00241051-01] | -93 | – | -115 | -1.3 | -129 | YES | -1.1 | -1.1 | – | – | – | – | – | – | – | – | IC50 [1, 11]: 7.1 µM
3 | OCc1ccc(-c2ccc(-c3ccc(CO)s3)o2)s1 [NCGC00159570-01] | -57 | 34.1 | – | – | – | – | – | -3 | 97 | 50.1 | 2.4 | 58 | – | – | – | – | –
4 | COC(=O)c1ccc(O)c2ncc(-c3ccc(C(=O)N4CCNCC4)cc3)cc12.O=C(O)C(F)(F)F [NCGC00189509-01] | -45 | 28.2 | – | – | – | – | – | -1.2 | – | – | – | – | – | – | – | – | COUNTERSCREEN Efficacy (%) ([1]; counterscreen): -25%; COUNTERSCREEN Curve Class ([1]; counterscreen): 4; CONFIRMATORY SCREEN Efficacy (%) ([2]; confirmatory screen): -16%; CONFIRMATORY SCREEN Curve Class ([2]; confirmatory screen): 4
5 | CN(C)[C@H]1CCN(c2cccc(Nc3nn4c(=O)c5ccccc5nc4s3)c2)C1.O=C(O)C(F)(F)F [NCGC00189222-02] | -39 | 32.8 | – | – | – | – | – | – | – | – | – | – | – | – | – | – | COUNTERSCREEN Efficacy (%) [1, 3]: -79%; COUNTERSCREEN Confirm? [1, 4]: YES; COUNTERSCREEN Curve Class [1, 3]: -2.2; IC50 ([1]; scrambled-peptide counterscreen, read-out: COUNTERSCREEN IC50): 56.2 µM; CONFIRMATORY SCREEN Confirm? [2, 5]: YES; CONFIRMATORY SCREEN Curve Class [2, 6]: -2.4; CONFIRMATORY SCREEN Efficacy (%) [2, 7]: -54%
6 | CCOC(=O)CC(SP(=S)(OC)OC)C(=O)OCC (centres unmarked) [NCGC00091902-08] | – | – | -27 | -1.4 | -93 | YES | -2.2 | – | – | – | – | – | -52 | -2.2 | 119 | – | Confirm? (counterscreen) ([1]; counterscreen, YES/NO): YES; IC50 [1, 11]: 20 µM; IC50 [2, 17]: 100 µM
7 | Cc1ccsc1C1N=C(Nc2nc3ccccc3o2)NC2=C1C(=O)CCC2.O=C(O)C(F)(F)F (centres unmarked) [NCGC00189283-01] | – | – | – | – | – | – | – | – | -34 | 63.1 | 4 | -22 | -28 | – | 7.9 | -2.4 | Confirm? (counterscreen) ([1]; Table S3, counterscreen, YES/NO call): YES
8 | OC[C@H]1O[C@@H](Oc2ccc(O)c3cccc(O)c23)[C@H](O)[C@@H](O)[C@@H]1O [NCGC00385147-01] | – | – | – | – | – | – | – | – | -86 | 15.8 | -1.1 | -85 | -54 | -2.2 | 31.6 | -1.1 | Confirm? (confirmatory screen) [2, 22]: YES; IC50 [2, 23]: 11.2 µM
9 | CCC(=O)NC(c1cccs1)c1cc(Br)c2cccnc2c1O (centres unmarked) [NCGC00183689-01] | – | – | -21 | 4 | -56 | YES | -2.4 | – | – | – | – | – | -54 | -1.2 | 28.2 | – | Confirm? (counterscreen) ([1]; counterscreen, YES/NO): YES; IC50 [2, 17]: 25.1 µM
10 | O=C(O)c1cnn(-c2nc3cc(Cl)c(OC(F)(F)F)cc3[nH]2)c1 [NCGC00484069-01] | – | – | -15 | 4 | -39 | YES | -2.4 | – | – | – | – | – | -33 | -1.2 | 28.2 | – | Confirm? (counterscreen) ([1]; counterscreen, YES/NO): YES; IC50 [2, 17]: 44.7 µM
11 | CC(=O)c1c(O)cc2c(c1C)C(=O)CC(O)C2 (centres unmarked) [NCGC00380695-01] | – | – | – | – | – | – | – | – | 0 | – | 4 | -25 | -53 | -2.2 | 56.2 | -3 | –
12 | FC(F)(F)c1cccc(N2CCN(C(=S)Nc3nccc4cccnc34)CC2)c1.O=C(O)C(F)(F)F [NCGC00244201-01] | – | – | -43 | -1.2 | -88 | YES | -2.2 | – | – | – | – | – | -55 | -1.2 | 28.2 | – | IC50 [1, 11]: 22.4 µM
13 | C[C@@H](NCc1cc2ccccc2[nH]1)c1cccc2ccccc12.Cl [NCGC00344505-01] | -31 | 21.5 | – | – | – | – | – | -2.4 | -21 | – | 4 | -25 | – | – | – | 4 | –
14 | CN(C)c1cnc2c(O)cccc2c1.O=C(O)C(F)(F)F [NCGC00188745-01] | -53 | 44.7 | – | – | – | – | – | -2.2 | – | – | – | – | – | – | – | – | COUNTERSCREEN Efficacy (%) ([1]; counterscreen): -32%; COUNTERSCREEN Curve Class ([1]; counterscreen): 4; CONFIRMATORY SCREEN Efficacy (%) ([2]; confirmatory screen): -19%; CONFIRMATORY SCREEN Curve Class ([2]; confirmatory screen): 4
15 | CC(=O)Nc1sc2c(c1-c1nc3ccccc3o1)CCN(C(C)C)C2.O=C(O)C(F)(F)F [NCGC00184832-01] | -78 | 50.1 | – | – | – | – | – | -2.2 | -55 | 50.1 | -1.2 | -47 | – | – | – | -2.2 | Confirm? (confirmatory screen) [2, 22]: YES; IC50 [2, 23]: 39.8 µM
16 | COc1ccccc1Nc1ccc2c(O)cc(S(=O)(=O)O)cc2c1.O=C(O)C(F)(F)F [NCGC00372954-01] | – | – | – | – | – | – | – | – | -89 | 22.4 | -2.1 | -93 | -41 | -2.2 | 35.5 | -2.4 | Confirm? (confirmatory screen) [2, 22]: YES; IC50 [2, 23]: 25.1 µM
